{"source": "patent US20070059378A1", "about": "“Medical composition for balancing bodily processes” (Metagenics, Inc., priority 2001, published 2007)", "test_system": "subjects with PMS symptoms", "assay": "Clinical study on PMS symptoms: Shortened Premenstrual Assessment Form (SPAF)", "type": "in vivo, women", "details": "medical food/I3C group vs medical food/placebo group", "description": "The clinical trial was performed at the Functional Medicine Research Center, Gig Harbor, Wash. […] Exclusion criteria for the study included: evidence of untreated endocrine, neurological, or infectious disorder; pregnancy or lactation; history of diabetes, mental illness or attempted suicide, or liver, kidney or heart disease; use of oral corticosteroids within four weeks prior to the screening; use of anti-arrhythmic or other cardiac medications.\nThe study was a […], 2-armed trial with stratification based on the use of birth control medication. Primary endpoints were monitored at the Screening Visit, Visit 1, Visit 2, and Visit 3. […]\nTwo research-validated, PMS-specific questionnaires were chosen for monitoring PMS symptoms: the Shortened Premenstrual Assessment Form (SPAF) and the Menstrual Distress Questionnaire (MDQ). […] The MDQ data is transformed to provide a normalized score for which a population mean of 50 and a standard deviation of 10 have been determined as reference values. […]\nBaseline data (the level of symptoms experienced in the preceding 2 menstrual cycles) were obtained from averaging the Screening Visit and Visit 1 values, and served as a control for non-intervention variability. Laboratory and questionnaire data were analyzed by a one-way analysis of variance (ANOVA) using JMP Statistical Package (SAS Institute, Cary, N.C.). […]", "data": [{"smiles": "OCc1c[nH]c2ccccc12", "note": "[Example I3C, indole-3-carbinol]", "values": [{"measurement": "additional effect of I3C on PMS symptoms (questionnaire data) over medical food/placebo", "result": "no difference"}, {"measurement": "additional effect of I3C on PMS symptoms (questionnaire data) over medical food/placebo", "setting": "listed as 13C", "result": "no additional effect"}]}]}
